In patent US8981091B2, “Pest control composition” (Sumitomo Chemical Company, Limited, priority 2011, dated 2015):

Assays:
Assay type in all cases: in vivo
[1] = test system: Bemisia tabaci; test: Test Example 3: spray on cabbage seedlings carrying Bemisia tabaci, insect death rate; conditions: 2 days after treatment
Method: Cabbages (Green ball) were planted (one plant per container) in plastic containers (volume: 90 ml) and grown until the third to fourth leaf stage. Only one leaf of each cabbage plant was left on the plant and all the other leaves were removed from the plant. The plastic containers were put into a net cage containing a lot of living Bemisia tabaci and allowed to stand for 24 hours. After that, the plastic containers were taken out from the cage and the number of living insects (Bemisia tabaci) on the cabbage seedlings was determined (This is called the “number of insects before treatment”).
(§1) A suspension concentrate containing 10.0% by weight of etoxazole [product name: Baroque (registered trademark) flowable, manufactured by Kyoyu Agri Co., Ltd.] was diluted with water containing 0.02% by volume of a spreading agent [product name: Sindain (registered trademark), manufactured by Sumitomo Chemical Co., Ltd.] so that the concentration of etoxazole became 800 ppm.
A reference standard containing 99.9% by weight of fenazaquin was diluted with water containing 0.02% by volume of a spreading agent [product name: Sindain (registered trademark), manufactured by Sumitomo Chemical Co., Ltd.] so that the concentration of fenazaquin became 50 ppm.
The water dilution of etoxazole, the water dilution of fenazaquin, and water containing 0.02% by volume of a spreading agent [product name: Sindain (registered trademark), manufactured by Sumitomo Chemical Co., Ltd.] were mixed to prepare a test solution with a predetermined concentration of etoxazole and/or fenazaquin.
Then, each test solution was sprayed onto the plastic containers to sufficiently soak cabbage seedlings, and allowed to stand for room temperature (about 25° C.). Two days after the treatment, the number of living insects (Bemisia tabaci) on the cabbage seedlings was determined (This is called the “number of insects after treatment”).
An insect death rate was calculated according to the following equation. For each treatment there are duplicates. […]

[2] = test system: Tetranychus urticae; test: Test Example 1: foliar spray on kidney bean leaves carrying Tetranychus urticae adults, insect death rate; conditions: etoxazole 0.000781 ppm alone, 2 days after treatment
Method: (§2) Kidney beans (Nagauzura saitou) were planted (one plant per container) in plastic containers (volume: 90 ml) and grown until the primary leaves had fully expanded. Only one leaf of each kidney bean plant was left on the plant and all the other leaves were removed from the plant. Then, 5 adults of Tetranychus urticae were released on each leaf.
as §1, with “Ltd.] so that the concentration of etoxazole became 800 ppm.” left out
(§3) A reference standard containing 99.9% by weight of fenazaquin was diluted with water containing 0.02% by volume of a spreading agent [product name: Sindain (registered trademark), manufactured by Sumitomo Chemical Co., Ltd.] so that the concentration of fenazaquin became 50 ppm. […]
Three days after the release of the insects, each test solution was sprayed onto the leaves of kidney bean plants and the leaves were air-dried. […] An insect death rate was calculated according to the following equation. […]

[3] = test system: Tetranychus urticae; test: Test Example 2: foliar spray on kidney bean leaves carrying Tetranychus urticae adults, insect death rate; conditions: etoxazole 0.8 ppm alone, 3 days after treatment
Method: as §2, with “10” for “5”
as §1, with “Ltd.] so that the concentration of etoxazole became 800 ppm.” left out
as §3
Four days after the release of the insects, each test solution was sprayed onto the leaves of kidney bean plants and the leaves were air-dried. […] An insect death rate was calculated according to the following equation. […]

With `CCOc1cc(C(C)(C)C)ccc1C1COC(c2c(F)cccc2F)=N1` (centres unmarked) [Etoxazole, 2-(2,6-difluorophenyl)-4-[4-(1,1-dimethylethyl)-2-ethoxyphenyl]-4,5-dihydrooxazole] the “Insect death rate (%)” value ([1]; etoxazole 50 ppm alone) was 15%, the “Insect death rate (%)” value ([1]; etoxazole 200 ppm alone) was 17% and the “Insect death rate (%)” value ([1]; etoxazole 800 ppm alone) was 32%. For the same molecule, the “Insect death rate (%)” value [2] was 10% and the “Insect death rate (%)” value [3] was 15%.
